The source of these data is patent US20110118199A1, “USE OF CNS PENETRATING ANTICANCER COMPOUNDS FOR THE TREATMENT OF PROTOZOAL DISEASES” (priority 2006, published 2011).

Series [1] deals with Trypanosoma brucei rhodesiense (STIB 900 clone). Nature of the series: Drug sensitivity assay (Alamar Blue, 72 h) against bloodstream form trypomastigotes in vitro. The format is cell-based. On the procedure:
Bloodstream form trypomastigotes of the strains (a) and (c) are maintained in Minimal Essential Medium (MEM) with Earle's salts supplemented according to Baltz et al. (EMBO J. 4, 1273-1277, 1985) with 25 mM N-2-hydroxyethylpiperazine-N′-2-ethane-sulphonic acid (HEPES), 1 g/l additional glucose, 1% MEM non-essential amino acids (100×), 0.2 mM 2-mercaptoethanol, 2 mM sodium pyruvate, 0.1 mM hypoxanthine and 15% heat-inactivated horse serum.
All cultures and assays are conducted at 37° C. under an atmosphere of 5% CO2 in air.
Stock drug solutions are prepared in 100% dimethylsulphoxide (DMSO) (unless otherwise recommended by the supplier) at 10 mg/ml, and heated or sonicated if necessary to dissolve the sample. The stocks are kept at −20° C. For the assays, the compound is further diluted to the appropriate concentration using complete medium.
Assays are performed in 96-well microtiter plates, each well containing 100 μl of culture medium with 8×10^3 bloodstream forms with or without a serial drug dilution. The highest concentration of the test compounds is 90 μg/ml. Seven 3-fold drug dilutions are used, covering a range from 90 μg/ml to 0.123 μg/ml. Each drug is tested in duplicate. Active compounds are tested twice for confirmation. The final result is the mean of the four individual IC50 values. After 72 hrs of incubation, the plates are inspected under an inverted microscope to assure growth of the controls and sterile conditions.
Ten microliters of Alamar Blue (12.5 mg resazurin dissolved in 100 ml distilled water) are then added to each well and the plates are incubated for another 2 hours. The plates are read with a Spectramax Gemini XS microplate fluorometer (Molecular Devices Cooperation, Sunnyvale, Calif., USA) using an excitation wave length of 536 nm and an emission wave length of 588 nm. IC50 values are determined using the microplate reader software Softmax Pro (Molecular Devices Cooperation, Sunnyvale, Calif., USA).
For orientation: The colour change of resazurin is a common sign of viable cells or microbes.

Series [2] shares this test system. Nature of the series: Sleeping sickness acute mouse model, T. b. rhodesiense STIB900. The format is in vivo, mice (NMRI). As for the experimental part: Sleeping Sickness: Acute Model—Trypanosome b. rhodesiense STIB900 Parasite and Animal Strains Trypanosoma brucei rhodesiense STIB900 is used for this model. Female mice (NMRI), weighing 20-25 g, are maintained at 22° C. and 70% relative humidity.
(§1) Standard drugs as positive controls are Melarsoprol (Arsobal®, Specia, France) and Diminazene aceturate (Berenil®, Hoechst, Germany). Stock solutions of all test items were prepared in DMSO.

For series [3], the system named is Trypanosoma brucei brucei GVR 35. The experiment in a line: Sleeping sickness in vivo chronic CNS mouse model, T. b. brucei GVR 35. Set-up: species or system mice (NMRI). Conditions: 40 mg/kg single i.p. dose on day +21. On the procedure: Sleeping Sickness: In Vivo Chronic CNS Model—Trypanosoma b. brucei GVR 35 Parasite and Animal Strains Trypanosoma brucei brucei GVR 35 which leads to a CNS infection by day 21 post-infection (Jennings and Gray, Contrib. Microbiol. Immunol. 7, 147-54, 1983) is used for this model.
Female mice (NMRI), weighing 20-25 g, are maintained at 22° C. and 70% relative humidity.
Infection: The bloodstream forms are from a stock of cryopreserved stabilates containing 10% glycerol. The stabilate is suspended in PSG (phosphate-saline-glucose) 6:4 (Lanham & Godfrey, Exp. Parasitol. 28, 521-534, 1970) to obtain a trypanosome concentration of 8×10^4/ml. Each mouse is intraperitoneally injected with 0.25 ml inoculum (equivalent to 2×10^4 trypanosomes) on day 0.
Experimental groups and control groups each consist of 5 mice.
Evaluation endpoint: On day +28 and then twice a week until day +50 parasitaemia of all animals is checked by tail blood examination and recorded based on a subjective scale ranging from (+)=1 trypanosome/20 fields to +++=>100 trypanosomes/field with a 20× objective. After day +50 the mice are checked only once per week until day +180. For mice dying before day +180 the day of death is recorded. At day +180, surviving and aparasitaemic mice are considered cured and then euthanized. […]

The conditions of series [4]: patients treated for African trypanomiasis; cited from earlier work.
In series [5] the test system is Trypanosoma brucei brucei STIB795. The experiment in a line: Sleeping sickness acute mouse model, T. b. brucei STIB795. The format is in vivo, mice (NMRI). Conditions: ip injection, four consecutive days, daily doses of 50 mg/kg; T. b. brucei STIB795 infected mice. On the procedure:
Trypanosoma brucei brucei STIB795 is used for this model. Female mice (NMRI), weighing 20-25 g, are maintained at 22° C. and 70% relative humidity.
as §1

Setting [6] is: T. b. rhodesiense STIB 900, in vitro, 72 h incubation, Alamar Blue, read-out: IC50.
[7] abbreviates: 4 × 20 mg/kg p.o., determined on day 18.

SMILES strings stand for the structures. Converted amounts (≈) assume the structure as drawn. Like-named read-outs stand apart in the source and are kept apart here. Bounds are passed on as bounds.

As a reminder, the IC50 is the concentration needed to halve the response being measured.

On to `O=NN(CCCl)C(=O)NCCCl` [Carmustine], for which, in series [1] (setting [6]), the IC50 came to 2.18 µg/mL (≈ 10.2 µM).

As to `CN(C)/N=N/c1[nH]cnc1C(N)=O` [Dacarbazine], the concentration for half-maximal inhibition (IC50) in series [1] (setting [6]) is 19.7 µg/mL (≈ 108 µM). Besides, the “MSD (mean survival days)” value in series [2] (setting [7]) is reported as 16 days; in series [2] (4 × 50 mg/kg p.o., determined on day 18) it was more than 18 days.

In the case of `N=C(N)c1ccc(/N=N/Nc2ccc(C(=N)N)cc2)cc1` [Diminazene diaceturate], the “course of parasitaemia and death (negative control)” value in series [3] was “all mice clear parasitaemia but relapse before day +40 and die between day +50 and day +60”.

As to `CC(=O)O[C@@]12CO[C@@H]1C[C@H](O)[C@@]1(C)C(=O)[C@H](O)C3=C(C)[C@@H](OC(=O)[C@H](O)[C@@H](NC(=O)OC(C)(C)C)c4ccccc4)C[C@@](O)([C@@H](OC(=O)c4ccccc4)[C@H]21)C3(C)C` [Docetaxel], the half-inhibitory concentration (IC50) in series [1] (setting [6]) stood at 0.006 µg/mL (≈ 0.00743 µM).

As to `COc1cccc2c1C(=O)c1c(O)c3c(c(O)c1C2=O)C[C@@](O)(C(=O)CO)C[C@@H]3O[C@H]1C[C@H](N)[C@H](O)[C@H](C)O1` [Doxorubicin], in series [1] (setting [6]), the IC50 is 0.015 µg/mL (≈ 0.0276 µM).

For `C[C@]12CC[C@@H]3c4ccc(OC(=O)N(CCCl)CCCl)cc4CC[C@H]3[C@@H]1CC[C@@H]2O` [Estramustine], in series [1] (72 h), the IC50 turned out to be 41.5 µg/mL (≈ 94.2 µM).

On to `Nc1nc(N)nc(Nc2ccc([As]3SCC(CO)S3)cc2)n1` (stereo not drawn) [Melarsoprol], for which the “often fatal reactive encephalopathy, share of treated patients” value in series [4] is “up to 10%”.

Regarding `CC(=O)O[C@H]1C(=O)[C@@]2(C)[C@H]([C@H](OC(=O)c3ccccc3)[C@]3(O)C[C@H](OC(=O)[C@H](O)[C@@H](NC(=O)c4ccccc4)c4ccccc4)C(C)=C1C3(C)C)[C@]1(OC(C)=O)CO[C@@H]1C[C@@H]2O` [Paclitaxel], in series [1] (setting [6]), the IC50 came to 0.01 µg/mL (≈ 0.0117 µM).

For the compound `Cn1nnc2c(C(N)=O)ncn2c1=O` [Temozolomide], the cure rate in series [5] was found to be 100%. Also, the IC50 in series [1] (setting [6]) was 27.7 µg/mL (≈ 143 µM). Besides, the “MSD (mean survival days)” value in series [2] (setting [7]) is recorded as more than 18 days; in series [2] (4 × 50 mg/kg i.p.), more than 51.5 days; in series [2] (4 × 50 mg/kg p.o.) it was more than 60 days. The Cured/Infected in series [2] (4 × 50 mg/kg i.p.) is reported as 3/4; in series [2] (4 × 50 mg/kg p.o.), 4/4.

With `CC[C@]1(O)C[C@@H]2CN(CCc3c([nH]c4ccccc34)[C@@](C(=O)OC)(c3cc4c(cc3OC)N(C)[C@H]3[C@@](O)(C(=O)OC)[C@H](OC(C)=O)[C@]5(CC)C=CCN6CC[C@]43[C@@H]65)C2)C1` [Vinblastine], in series [1] (setting [6]), the IC50 is 0.13 µg/mL (≈ 0.16 µM).
